Values of other authors, collected in publication PMC5328943 (International journal of pharmaceutics, 2017).
≈ marks a conversion by molar mass, not a printed value.

Settings: with TPGS; ref Yu et al., 1999

- solubility in water: 720 µg/mL (≈ 1420 µM)
Structure (SMILES): CC(C)CN(C[C@@H](O)[C@H](Cc1ccccc1)NC(=O)O[C@H]1CCOC1)S(=O)(=O)c1ccc(N)cc1 [amprenavir]
